Laboratory results: PMC5562523 (Cell chemical biology, 2017)
Entries after “also recorded” stand apart in the source; their conditions may differ.

Key:
[1] = test system: S. aureus; assay type: cell-based; conditions: 10 – 80 μM, pH 7.0 and 5.7, 6 hours
[2] = test system: S. aureus free thiols; assay: Free thiols in S. aureus; assay type: cell-based, Staphylococcus aureus strain Newman; conditions: 20 μM, pH 5.7
[3] = test system: S. aureus (ΔsodAΔsodM); assay type: cell-based; conditions: pH 7.0 and 5.7
[4] = test system: Mtb; assay: Fractional killing and potentiation of antimicrobials; assay type: cell-based, Mycobacterium tuberculosis; conditions: pH 5.7, 3 days; for reduction in bacterial growth relative to the initial inoculum, compound alone: 10 μM AC2P36 alone or 10 μM INH alone
[5] = test system: Pseudomonas auruginosa; assay type: cell-based; conditions: neutral and acidic pH
[6] = test system: Mtb; assay: Intracellular reactive oxygen species; assay type: cell-based, Mycobacterium tuberculosis
[7] = test system: Proteus vulgaris; assay type: cell-based; conditions: neutral and acidic pH
[8] = test system: Mtb; assay: Bactericidal activity of AC2P36; assay type: cell-based, Mycobacterium tuberculosis strain CDC1551
[9] = test system: Mtb; assay: Menadione sensitivity assay; assay type: cell-based, Mycobacterium tuberculosis; conditions: pH 5.7, dose response of AC2P36 and menadione, six days, OD
[10] = test system: Mtb free thiol pools; assay: Free thiol pools in Mtb; assay type: cell-based; conditions: for free thiol pools relative to DMSO/untreated control: pH 7.0 and 5.7, 24 hours, 2 or 20 μM AC2P36, 20 μM auranofin, INH
[11] = test system: Mtb cytoplasmic pH; assay: Cytoplasmic pH measurement; assay type: cell-based; conditions: pH 5.7, over 24 hours
[12] = in vitro; assay type: cell-based; conditions: mouse
[13] = test system: Mtb reporter strain CDC1551::roGFP-R12; assay type: cell-based, Mycobacterium tuberculosis; conditions: pH 7.0 and 5.7, 0.1 – 20 μM, 6 h
[14] = test system: Mtb; assay type: cell-based
[15] = test system: Staphylococcus aureus; assay type: cell-based; conditions: neutral and acidic pH
[16] = test system: Enterococcus faecalis; assay type: cell-based; conditions: neutral and acidic pH
[17] = test system: Escherichia coli; assay type: cell-based; conditions: neutral and acidic pH
[18] = test system: Mtb; assay: Protection from AC2P36 by ROS scavenging agents; assay type: cell-based, Mycobacterium tuberculosis; conditions: pH 5.7, dose response of scavenger, six days, OD

## O[C@@H](CS)[C@@H](O)CS (racemic) [DTT, Dithiothreitol, reference compound]
[1]
  ROS accumulation in S. aureus: had no effect on ROS accumulation

## COc1ccc(NC(=O)c2nc(S(C)(=O)=O)ncc2Cl)cc1Cl [AC2P36, 5-chloro-N-(3-chloro-4-methoxyphenyl)-2-methylsulfonylpyrimidine-4-carboxamide]
[2]
  reduction in free thiols in S. aureus: ~ 30%
[3]
  enhanced sensitivity of S. aureus (ΔsodAΔsodM) to AC2P36 compared to WT: ~ 2 fold
[4]; 10 μM AC2P36 + 0.3 μM rifampin
  synergy/potentiation in combination with rifampin: no significant synergy; also recorded: No potentiation was observed
[4]
  reduction in bacterial growth relative to the initial inoculum, compound alone: approximately 2 fold
[5]
  susceptibility of P. aeruginosa to AC2P36: relatively unaffected
[6]; 2 or 20 μM AC2P36, pH 7.0 and 5.7, 24 hours
  accumulation of intracellular ROS: dose-dependent and pH-dependent accumulation of reactive oxygen species; also recorded: significant induction of ROS
[7]
  susceptibility of P. vulgaris to AC2P36: relatively unaffected
[8]; 20 μM AC2P36, pH 5.7, by 7 days
  reduction of viability relative to the DMSO treated control: ~ 100 fold
[8]; pH 5.7, 6 days of treatment
  concentrations at which bactericidal activity is observed: > 10 µM
[9]
  synergy with menadione: did not synergize
[10]; 20 μM AC2P36, pH 5.7, 24 hours
  depletion of free thiols vs DMSO treated samples: ~ 16 fold
[10]; 20 μM AC2P36, pH 5.7, 24 hours (DMSO ~1.3 μM)
  free thiol concentration after treatment: ~ 80 nM
[10]; 20 μM AC2P36, pH 7.0, 24 hours
  reduction of free thiols: reduced by one third
[10]
  free thiol pools relative to DMSO/untreated control: significantly depleted thiol pools at both pH 7.0 and 5.7
[11]
  effect on Mtb cytoplasmic pH: does not modulate Mtb cytoplasmic pH
[12]
  CC50 at 3 days: 17 µM
[13]
  cytoplasmic redox status (roGFP): leads to a reduced cytoplasm in a dose-dependent and pH-independent manner; also recorded: promotes a reduced cytoplasm in a dose-dependent and pH-independent manner
[14]
  selectivity at acidic pH (pH 5.7 vs pH 7.0 EC50): ~ 10 fold
[14]; pH 7.0
  concentrations at which Mtb growth is slowed/inhibited at neutral pH: > 30 μM
[15]
  susceptibility of S. aureus to AC2P36: exhibit susceptibility to AC2P36
[1]
  ROS accumulation in S. aureus: enhanced ROS accumulation in a dose-dependent manner
[16]
  susceptibility of E. faecalis to AC2P36: exhibit susceptibility to AC2P36
[17]
  susceptibility of E. coli to AC2P36: relatively unaffected

## CC(C)/N=c1\cc2n(-c3ccc(Cl)cc3)c3ccccc3nc-2cc1Nc1ccc(Cl)cc1 [Clofazimine, clofazimine, reference compound]
[4]; 100 μM clofazimine alone
  effect on Mtb growth, compound alone: did not impact Mtb growth

## NNC(=O)c1ccncc1 [INH, isoniazid, reference compound]
[4]
  reduction in bacterial growth relative to the initial inoculum, compound alone: approximately 2 fold
[10]
  free thiol pools relative to DMSO/untreated control: comparable thiol concentrations as the untreated cultures

## CC(=O)N[C@@H](CS)C(=O)O [NAC, N-acetylcysteine]
[18]
  protection of Mtb from 32 μM AC2P36: protects Mtb from killing by 32 μM AC2P36 in a dose dependent manner

## CC(=O)OC[C@H]1O[C@@H]([S-])[C@H](OC(C)=O)[C@@H](OC(C)=O)[C@@H]1OC(C)=O.CCP(CC)CC.[Au+] [auranofin, reference compound]
[2]
  reduction in free thiols in S. aureus: ~ 30%
[10]
  free thiol pools relative to DMSO/untreated control: depleted free thiols relative to the DMSO treated control

## CN(C)C(=O)/N=N/C(=O)N(C)C [diamide, reference compound]
[4]; 1 mM diamide alone
  enhancement in bacterial growth relative to the initial inoculum, compound alone: 1.8 fold
[6]; 20 μM diamide, neutral pH
  accumulation of intracellular ROS: resists diamide treatment
[6]; 20 μM diamide, pH 5.7
  accumulation of intracellular ROS: significant increase in ROS
